Assay results published in patent US7425558B2, “Serotonergic agents for treating sexual dysfunction” (Wyeth, priority 2000, dated 2008).

Assays:
[1] = system: sexually experienced male rats (Sprague-Dawley rats); experiment: Non-contact penile erections in sexually experienced male rats (animal model of drug-induced sexual dysfunction); format: in vivo; details: for Reversal of fluoxetine-induced sexual dysfunction: administered acutely after 7 or 14 days of fluoxetine treatment; for Prevention of deficit in non-contact penile erections produced by chronic fluoxetine: co-administered with fluoxetine 10 mg/kg for 7 or 14 days, Example compound 3 1 mg/kg, Example compound 2 0.3 mg/kg
Method: The animal model is based on the finding that sexually experienced rats that are administered an SSRI, a drug used to treat certain conditions such as depression, display a reduction in the number of non-contact penile erections. SSRI treatment is associated with sexual dysfunction in human subjects. In general, the animal model exposes sexually experienced male rats (Sprague-Dawley rats) to female rats in estrous in a novel testing arena that is not the regular housing environment.
The ability of various drugs associated with sexual dysfunction in humans to cause sexual dysfunction in the animal model was tested using three different drugs, bupropion (20 mg/kg), desipramine (10 mg/kg), and fluoxetine (10 mg/kg), or vehicle alone (0.9% saline), each administered intraperitoneally (i.p.), once per day for 14 days. After the treatment period, animals were tested for the frequency of non-contact penile erections over a 30 minute trial period.
To examine the time course of the effects of a drug that causes sexual dysfunction, rats that were handled and tested as described above were treated acutely: rats were treated with vehicle for 6 days, and on the test day (day 7) instead of vehicle, the animals received a single dose of fluoxetine in vehicle (i.p.). For a subchronic (7 day) study, fluoxetine was administered each day for 7 days and the animals were evaluated on test day 7. For the chronic 14 day study, fluoxetine was administered each day for 14 days and the animals were tested on day 14. Each fluoxetine dose was 10 mg/kg in vehicle and was delivered i.p. on each of the test days as described above.
To test the ability of a 5-HT1A antagonist to ameliorate the effects of sexual dysfunction, sexually experienced rats were administered an SSRI using an acute or subchronic (7 day) schedule and then tested for sexual function as described above.
In these experiments, rats were treated with vehicle only on days 1-13 then administered a single acute dose of 0.1 mg/kg of the compound (group 1), vehicle only for days 1-13 and a single dose of 1.0 mg/kg compound in vehicle on day 14 (group 2), only vehicle on days 1-14 (group 3), fluoxetine on days 1-14 (group 4), fluoxetine on days 1-13 and a single administration of 0.1 mg/kg of the compound and fluoxetine on day 14 (group 5); and fluoxetine on days 1-13 and a single dose of 1.0 mg/kg compound with fluoxetine on day 14 (group 6). For each group, behavior testing was performed for 30 minutes immediately following drug administration on day 14 only.
Experiments were conducted to assess the ability of a 5-HT1A antagonist to prevent the effects of SSRI treatment. Rats, as described supra, were co-administered a 5-HT1A antagonist and an SSRI. […] The administered SSRI was fluoxetine (10 mg/kg). The 5-HT1A antagonist and SSRI were co-administered for 7 or 14 days with the SSRI.

[2] = target: T1, cloned human 5-HT1A receptors (Homo sapiens, UniProt P08908); experiment: Binding to cloned human 5-HT1A receptors in CHO cells, [3H]8-OH-DPAT radioligand; details: read-out: 5-HT1A Affinity Ki
T1 construct: expressed in transfected cells; host or cells: CHO cells
T1 sequence (P08908 1-422): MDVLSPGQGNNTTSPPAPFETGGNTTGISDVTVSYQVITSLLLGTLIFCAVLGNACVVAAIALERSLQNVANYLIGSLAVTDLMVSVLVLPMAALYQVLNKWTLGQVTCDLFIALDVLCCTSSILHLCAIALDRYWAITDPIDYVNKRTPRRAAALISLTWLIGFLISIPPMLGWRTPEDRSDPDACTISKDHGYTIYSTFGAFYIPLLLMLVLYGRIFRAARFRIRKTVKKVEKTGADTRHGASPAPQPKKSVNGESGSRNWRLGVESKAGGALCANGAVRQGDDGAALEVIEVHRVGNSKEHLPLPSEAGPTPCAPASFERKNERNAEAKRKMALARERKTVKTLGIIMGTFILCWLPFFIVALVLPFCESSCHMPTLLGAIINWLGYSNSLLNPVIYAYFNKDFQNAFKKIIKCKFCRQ

[3] = target: T2, human 5-HT1A receptor (Homo sapiens, UniProt P08908); experiment: In vitro functional activity: antagonism of 8-OH-DPAT inhibition of forskolin-stimulated cAMP production; format: cell-based; details: antagonism of 10 nM 8-OH-DPAT inhibition of forskolin-stimulated cAMP production; read-out: 5-HT1A Antagonist Activity cAMP Assay IC50
T2 construct: expressed in transfected cells
T2 sequence (P08908 1-422): T1 sequence (P08908 1-422)

[4] = target: T3, 5-HT1A (Rattus norvegicus, UniProt P19327); experiment: Fixed Responding Model, in vivo 5-HT1A antagonism of 8-OH-DPAT-induced decrease in response rate; design: species or system rats
T3 construct: from tissue; host or cells: whole animal (rat), behavioural model
T3 sequence (P19327 1-422): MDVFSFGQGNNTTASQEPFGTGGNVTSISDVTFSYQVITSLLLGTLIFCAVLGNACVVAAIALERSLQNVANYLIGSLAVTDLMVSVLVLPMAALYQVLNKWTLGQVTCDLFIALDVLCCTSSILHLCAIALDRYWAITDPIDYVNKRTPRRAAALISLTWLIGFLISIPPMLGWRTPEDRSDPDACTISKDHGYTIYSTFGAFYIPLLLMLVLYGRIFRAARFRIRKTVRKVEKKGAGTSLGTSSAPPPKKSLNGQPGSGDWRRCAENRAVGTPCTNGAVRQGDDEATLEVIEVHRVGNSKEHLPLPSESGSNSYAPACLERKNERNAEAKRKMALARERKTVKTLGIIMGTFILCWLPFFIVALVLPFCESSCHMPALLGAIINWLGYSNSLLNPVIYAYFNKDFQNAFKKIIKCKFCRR
Method: The ability of the compounds to function in vivo as 5-HT1A antagonists was assessed in rats using a Fixed Responding Model (D. Blackman, in “Operant Conditioning: An Experimental Analysis of Behavior”, J. Butcher, ed., Methuen and Co., Ltd., London). In this model rats are trained to respond (lever pressing) under a fixed-ratio 30 schedule of food presentation in order to receive a food pellet reinforcer. […] The 5-HT1A antagonist activity of a test compound is determined by measuring its ability to antagonize this agonist-induced decrease in response rate.

[5] = target: T3, 5-HT1A; experiment: Duration of action in the Fixed Responding Model; format: in vivo, rats
Source text: All drug and vehicle administrations were made by the subcutaneous route.

CNCCC(Oc1ccc(C(F)(F)F)cc1)c1ccccc1 (stereo not drawn) [fluoxetine, N-methyl-3-(p-trifluoromethylphenoxy)-3-phenylpropylamine, reference compound]
Sexual dysfunction (number of non-contact penile erections in 30 minutes) ([1]; chronic (14 days) fluoxetine 10 mg/kg i.p.): significant increase in sexual dysfunction
Sexual dysfunction (number of non-contact penile erections in 30 minutes) ([1]; sub-chronic (7 days) fluoxetine 10 mg/kg i.p.): significant increase in sexual dysfunction

C[C@H](CN(C(=O)c1ccc(C#N)cc1)c1ccccn1)N1CCN(c2cccc3c2OCCO3)CC1 [Example 1, (R)-4-Cyano-N-{2-[4-(2,3-Dihydro-Benzo[1,4]dioxin-5-yl)-Piperazin-1-yl]-Propyl}-N-Pyridin-2-yl-Benzamide]
Ki [2]: 1.6 nM
IC50 [3]: 25 nM
Reversal of decrease in response rate induced by 8-OH-DPAT ([4]; 1 mg/kg dose, 0.3 mg/kg 8-OH-DPAT): completely reverses
Response Rate ([4]; 8-OH-DPAT (0.3 mg/kg sc) + Example compound 1 (1 mg/kg sc), vehicle control 2.4 ± 0.5): 2.5 ± 0.2 responses/second
Antagonism of agonist-induced decrease in responding ([5]; 30 minutes after administration): completely antagonize
Duration of action ([5]; Fixed Responding Model, sc): > 4 h
Dose Which Shifts Agonist Dose-response Curve by 10-fold ([5]; administered 30 minutes prior to 8-OH-DPAT): 1.0 mg/kg, sc
5-HT1A antagonist effect on response rate ([5]; agonist given 2 hours following test drug administration): complete 5-HT1A antagonist effects
5-HT1A antagonist effect on response rate ([5]; four hours post-administration): complete antagonism
% Response Rate, 0.5 hour pretreatment ([5]; test compound sc (Table 3 dose) 0.5 hour before 0.3 mg/kg 8-OH-DPAT, 100% = vehicle control response rate): 100 ± 7%
% Response Rate, 2 hour pretreatment ([5]; test compound sc (Table 3 dose) 2 hours before 0.3 mg/kg 8-OH-DPAT, 100% = vehicle control response rate): 118 ± 13%
% Response Rate, 4 hour pretreatment ([5]; test compound sc (Table 3 dose) 4 hours before 0.3 mg/kg 8-OH-DPAT, 100% = vehicle control response rate): 99 ± 16%

(R)-N-(2-methyl-(4-indolyl-1-piperazinyl)ethyl)-N-(2-pyridinyl)cyclohexanecarboxamide [Example compound 3]
Reversal of fluoxetine-induced sexual dysfunction [1]: complete and significant reversal
Prevention of deficit in non-contact penile erections produced by chronic fluoxetine [1]: prevented the deficit in non-contact penile erections
Reversal of deficits in number of non-contact penile erections ([1]; single dose 0.1 mg/kg on day 14 of fluoxetine 10 mg/kg/day i.p.): full reversal
Reversal of deficits in number of non-contact penile erections ([1]; single dose 1.0 mg/kg on day 14 of fluoxetine 10 mg/kg/day i.p.): full reversal

COc1ccccc1N1CCN(CCN(C(=O)C2CCCCC2)c2ccccn2)CC1 [Example compound 2, N-[2-[4-(2-methoxyphenyl)-1-piperazinyl]ethyl]-N-(2-pyridinyl)cyclohexanecarboxamide]
Reversal of fluoxetine-induced sexual dysfunction [1]: complete and significant reversal
Prevention of deficit in non-contact penile erections produced by chronic fluoxetine [1]: prevented the deficit in non-contact penile erections
Effect on drug-induced sexual dysfunction ([1]; single acute dose after a period of drug-induced sexual dysfunction): ameliorated sexual dysfunction
